Experiment [1] has as its system cervical cancer (HeLa). Kind of experiment: Antitumor activity (growth inhibition, cytotoxic IC50) against HeLa. The class given is cell-based. To be noted: Homo sapiens; for inhibition at 100 µg/mL: 100 μg/mL, read-out: growth inhibition percentage.
Experiment [2] deals with Caspase 3. In words: Protein expression level in MDA-MB-468 cells: Caspase 3. In kind it is cell-based, human. The conditions noted are these: in comparison to the control (untreated) cells.
For experiment [3], the system named is COX-2. In words: Protein expression level in MDA-MB-468 cells: COX-2. The conditions noted are these: compared to the control (untreated) cells. In kind it is cell-based, human.
For experiment [4], the system named is MMP9. Kind of experiment: Protein expression level in MDA-MB-468 cells: MMP9. In kind it is cell-based, human. To be noted: compared to the control (untreated) cells.
Experiment [5] concerns prostate cancer (PC3). In words: Antitumor activity (growth inhibition) against PC3. The class given is cell-based. The conditions noted are these: Homo sapiens, 100 μg/mL, read-out: growth inhibition percentage.
Experiment [6] deals with IL-6. In words: Protein expression level in MDA-MB-468 cells: IL-6. The class given is cell-based, human. To be noted: compared to the control (untreated) cells.
For experiment [7], the system named is pharynx squamous carcinoma (FaDu). In words: Antitumor activity (growth inhibition, cytotoxic IC50) against FaDu. In kind it is cell-based. To be noted: Homo sapiens; for inhibition at 100 µg/mL: 100 μg/mL, read-out: growth inhibition percentage.
Experiment [8] relates to human oral epithelial normal cell line (OEC). In words: Growth inhibition of normal cell line OEC. In kind it is cell-based.
The subject of experiment [9] is IL-1β. Kind of experiment: Protein expression level in MDA-MB-468 cells: IL-1β. The class given is cell-based, human. To be noted: compared to the control (untreated) cells.
Experiment [10] relates to triple-negative breast cancer (MDA-MB-468). In words: Antitumor activity (growth inhibition, cytotoxic IC50) against MDA-MB-468. The class given is cell-based. To be noted: Homo sapiens; for inhibition at 100 µg/mL: 100 μg/mL, read-out: growth inhibition percentage.
The test system of experiment [11] is BAX. Kind of experiment: Protein expression level in MDA-MB-468 cells: BAX. The class given is cell-based, human. The conditions noted are these: in comparison to the control (untreated) cells.
For experiment [12], the system named is Caspase 6. Kind of experiment: Protein expression level in MDA-MB-468 cells: Caspase 6. The class given is cell-based, human. To be noted: in comparison to the control (untreated) cells.
The subject of experiment [13] is p53. Kind of experiment: Protein expression level in MDA-MB-468 cells: p53. The class given is cell-based, human. The conditions noted are these: in comparison to the control (untreated) cells.
In experiment [14] the test system is MMP2. Kind of experiment: Protein expression level in MDA-MB-468 cells: MMP2. The class given is cell-based, human. The conditions noted are these: compared to the control (untreated) cells.
Experiment [15] has as its system Caspase 8. Kind of experiment: Protein expression level in MDA-MB-468 cells: Caspase 8. In kind it is cell-based, human. The conditions noted are these: in comparison to the control (untreated) cells.
Experiment [16] deals with colorectal carcinoma (HCT116). In words: Antitumor activity (growth inhibition) against HCT116. To be noted: Homo sapiens, HCT-116, 100 μg/mL, read-out: growth inhibition percentage. The class given is cell-based.
Experiment [17] concerns BCL-2. In words: Protein expression level in MDA-MB-468 cells: BCL-2. In kind it is cell-based, human. The conditions noted are these: compared to the control (untreated) cells.
In experiment [18] the test system is Caspase 9. In words: Protein expression level in MDA-MB-468 cells: Caspase 9. In kind it is cell-based, human. To be noted: in comparison to the control (untreated) cells.
Experiment [19] concerns human non-small cell lung cancer (A549). Kind of experiment: Antitumor activity (growth inhibition, cytotoxic IC50) against A549. The class given is cell-based. The conditions noted are these: for inhibition at 100 µg/mL: 100 μg/mL, read-out: growth inhibition percentage.
[20] abbreviates: read-out: cytotoxic inhibitory concentration 50 (IC50).

Molecules are shown by their SMILES. In brackets after ≈: the same amount, converted by molar mass.

Consider `N#C[Se]CCCN1C(=O)c2ccccc2C1=O` [DS128, 2-(3-selenocyanatopropyl) isoindoline-1,3-dione], for which the inhibition at 100 µg/mL in experiment [1] came out at 75.1%; in experiment [5] it was 83.2%; in experiment [7] it was 83.8%; in [10], 86%; in experiment [16] it was 78.5%; in [19], 77.7%. For the same compound, the IC50 stood at 5.36 µg/mL (≈ 18.3 µM) in experiment [1] (setting [20]), 5.46 µg/mL (≈ 18.6 µM) in experiment [7] (setting [20]), 4.33 µg/mL (≈ 14.8 µM) in experiment [10] (setting [20]) and 5.4 µg/mL (≈ 18.4 µM) in experiment [19] (setting [20]). For the same compound, the “upregulation of Caspase 3 protein” value in experiment [2] worked out at 1.27 times. In experiment [3], the “downregulation of COX-2” value is 0.48 times. Further, the “downregulation of MMP9 protein” value in [4] was 0.47 times. The “downregulation of IL-6” value in experiment [6] worked out at 0.40 times. Besides, in experiment [8], the growth inhibition percentage came to 40.02%. Moreover, in experiment [9], the “downregulation of IL-1β” value stood at 0.42 times. Moreover, in experiment [11], the “upregulation of BAX protein” value stood at 1.68 times. Further, the “upregulation of Caspase 6 protein” value in [12] came out at 2.46 times. Moreover, the “upregulation of p53 protein” value in [13] was found to be 1.77 times. Moreover, the “downregulation of MMP2 protein” value in experiment [14] was 0.43 times. The “upregulation of Caspase 8 protein” value in experiment [15] is 6.71 times. Besides, the “downregulation of BCL-2 protein” value in [17] is 0.44 times. For the same compound, the “upregulation of Caspase 9 protein” value in experiment [18] came out at 2.00 times.
For `COc1cccc2c1C(=O)c1c(O)c3c(c(O)c1C2=O)C[C@@](O)(C(=O)CO)C[C@@H]3O[C@H]1C[C@H](N)[C@H](O)[C@H](C)O1` [doxorubicin, reference compound], the inhibition at 100 µg/mL was 92.7% in experiment [1]; 89.9% in experiment [5]; 92.9% in experiment [7]; 96% in experiment [10]; 71% in experiment [16]; 86.4% in experiment [19]. Moreover, the growth inhibition percentage in [8] is on record as 57.89%.

A word on the inhibition: it is the share of the control response that was lost under treatment.

These data come from US12285406B1, “Method of treating cancer with a selenide” (priority 2024, dated 2025).
